Measured values: patent publication US10233195B2, “Anti-fibrotic pyridinones” (InterMune, Inc., priority 2014, dated 2019)

Tests used:
[1] = tested on: Fibroblasts (primary human lung and dermal, HFL-1, 3T3 etc); experiment: Cell proliferation assay (BrdU incorporation); type: cell-based; settings: HFL1, stimulant (LPA, TGFb, serum etc), 50% inhibition of the increase of BrdU incorporation
Description: Assay of Inhibitory Effect on Cell Proliferation (BrdU Incorporation)
Fibroblasts (primary human lung and dermal, HFL-1, 3T3 etc) were plated on a 96-well plate and serum starved for 24-48 hours. The media were then exchanged for media containing stimulants (LPA, TGFb, serum etc) and cultured further for 16-24 hours before BrdU addition. After culturing for another 8 hours, cells were washed with PBS and the amount of BrdU incorporated into the cells was assayed by absorbance at 450 nm using the Cell proliferation ELISA system (RPN250, Amersham LIFE SCIENCE). The difference between the amount of BrdU incorporated in the stimulant-added well and the amount of BrdU incorporated in the well containing no stimulant represented the amount of BrdU incorporation accelerated by stimulant. The increase of BrdU incorporation without the addition of test compounds was set as 100% and the concentration of compound with 50% inhibition in the increase of BrdU incorporation (IC50 value) was determined. The test compounds were added 0-30 min before stimulant addition.
Compounds of some embodiments were prepared according to synthetic methods described herein and assay data obtained for IC50 for BrdU inhibition. The assay data obtained is presented in Table 3, in which A=less than 50 μM, B=greater than or equal to 50 μM and less than or equal to 200 μM; and C=greater than 200 μM.

[2] = tested on: TGF-b induced Endothelin-1 production; experiment: ET-1 assay: inhibitory effect on TGF-b induced endothelin-1 production; type: cell-based; settings: Homo sapiens, Fibroblast; fibroblasts, stimulant (TGFb, serum, LPA etc), ET-1 in media by ELISA, 4-parameter fit
Outline: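 Fibroblasts (primary human lung/dermal, HFL-1, 3T3) serum-starved 0-48 h, preincubated ~30 min with compound, then stimulated (TGFb, serum or LPA) for 16-48 h. Secreted ET-1 measured by ELISA; EC50 from 4-parameter logistic fit, with CC50 from ATPlite in the same wells.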

Compound | IC50 [1] [µM] | EC50 [2] [µM]
Cc1cc(=O)n(-c2ccc(OC(F)(F)F)cc2)cc1-c1cccc2ncsc12 [Compound 263] | < 50 | < 50
COc1cccc(-n2cc(C(F)(F)F)ccc2=O)c1 [Compound 276] | > 200 | > 200
CCOc1ccc(-n2cc(C(F)(F)F)ccc2=O)c(C)c1 [Compound 278] | 50 to 200 | 50 to 200
Cc1ccc(=O)n(-c2cc(F)c(F)c(F)c2)c1 [Compound 282] | > 200 | > 200
CC(C)c1ccc(=O)n(-c2ccccc2)c1 [Compound 285] | > 200 | > 200
O=c1ccc(-c2ccc(F)cc2)cn1-c1ccccc1F [Compound 290] | > 200 | 50 to 200
O=c1ccc(-c2ccccc2)cn1-c1cncnc1 [Compound 300] | > 200 | > 200
CC(C)Oc1ccc(-n2cc(-c3cccc(Cl)c3)ccc2=O)cc1 [Compound 316] | < 50 | < 50
Cc1ccc(=S)n(-c2ccc(OC(F)(F)F)cc2)c1 [Compound 333] | > 200 | 50 to 200
Cc1cc(-c2ccc(F)cc2)cn(-c2ccc(OC(F)(F)F)cc2)c1=O [Compound 350] | 50 to 200 | 50 to 200
Cc1cc(-c2ccc(F)cc2)cn(-c2ccccc2)c1=O [Compound 351] | 50 to 200 | < 50
Cc1cc(-c2cnn(C)c2)cn(-c2ccccc2)c1=O [Compound 353] | > 200 | 50 to 200
Cc1ccc(=O)n(-c2ccc(OC(F)(F)F)cc2)n1 [Compound 360] | 50 to 200 | < 50
O=c1ccc(-c2cn[nH]c2)cn1-c1ccc(OC(F)(F)F)cc1 [Compound 374] | 50 to 200 | < 50
CCOc1ccc(-n2cc(-c3cn[nH]c3)ccc2=O)c(C)c1 [Compound 376] | > 200 | < 50
Cc1n[nH]c(C)c1-c1ccc(=O)n(-c2ccc(OC(F)(F)F)cc2)c1 [Compound 383] | 50 to 200 | 50 to 200
O=c1ccc(-c2cnn(Cc3ccccc3)c2)cn1-c1ccccc1 [Compound 385] | < 50 | 50 to 200
CCOc1ccc(-n2cc(-c3c(C)n[nH]c3C)ccc2=O)c(C)c1 [Compound 387] | 50 to 200 | 50 to 200
Cc1c(-c2ccc(=O)n(-c3ccc(OC(F)(F)F)cc3)c2)cnn1C [Compound 391] | 50 to 200 | < 50
Cn1cc(-c2cn(-c3ccc(OC(F)(F)F)cc3)c(=O)c3c2ccn3C)cn1 [Compound 394] | < 50 | < 50
Cn1cc(-c2cn(-c3ccc(C#N)cc3)c(=O)c3cccnc23)cn1 [Compound 395] | 50 to 200 | 50 to 200
O=c1c2nccnc2c(-c2cn[nH]c2)cn1-c1ccc(Cl)cc1 [Compound 399] | < 50 | > 200
O=c1c2nccnc2c(-c2cn[nH]c2)cn1-c1ccc(OC(F)(F)F)cc1 [Compound 400] | < 50 | < 50
Cn1cc(-c2cn(-c3ccc(OC(F)(F)F)cc3)c(=O)cc2C#N)cn1 [Compound 402] | > 200 | < 50
CCOc1ccc(-n2cc(-c3cnn(C)c3)c(Oc3ccccc3)cc2=O)c(C)c1 [Compound 403] | < 50 | < 50
Cn1cc(-c2cn(-c3ccc(OC(F)(F)F)cc3)c(=O)cc2NCc2ccc(F)cc2F)cn1 [Compound 404] | < 50 | < 50

Compound | IC50 [1] [µM] | EC50 [2] [µM]
Cn1cc(-c2cn(-c3ccc(OC(F)(F)F)cc3)c(=O)cc2NCc2ccc(Cl)cc2Cl)cn1 [Compound 405] | < 50 | < 50
Cn1cc(-c2cn(-c3ccc(OC(F)(F)F)cc3)c(=O)cc2NCc2ccc(Cl)cc2)cn1 [Compound 406] | < 50 | 50 to 200
Cn1cc(-c2cn(-c3ccc(OC(F)(F)F)cc3)c(=O)cc2NCc2ccc(F)cc2)cn1 [Compound 407] | < 50 | < 50
Cn1cc(-c2cn(-c3ccc(OC(F)(F)F)cc3)c(=O)cc2Oc2ccc(F)cc2)cn1 [Compound 410] | < 50 | < 50
Cn1cc(-c2cn(-c3ccc(OC(F)(F)F)cc3)c(=O)cc2NCc2cnccn2)cn1 [Compound 411] | < 50 | 50 to 200
Cn1cc(-c2cn(-c3ccc(OC(F)(F)F)cc3)c(=O)cc2Oc2cccc(Cl)c2)cn1 [Compound 413] | < 50 | < 50
Cn1cc(-c2cn(-c3ccc(OC(F)(F)F)cc3)c(=O)cc2Oc2ccccc2Cl)cn1 [Compound 414] | < 50 | < 50
Cc1cc(=O)n(-c2ccc(OC(F)(F)F)cc2)cc1-c1cccc2c1OC(F)(F)O2 [Compound 415] | < 50 | < 50
CCOC(=O)Nc1cccc(-n2cc(-c3ccc(F)cc3)c(C)cc2=O)c1 [Compound 416] | < 50 | < 50
Cc1cc(=O)n(-c2cccc(NC(=O)N(C)C)c2)cc1-c1ccc(F)cc1 [Compound 417] | < 50 | < 50
Cc1cc(=O)n(-c2ccc(NC(N)=O)cc2)cc1-c1ccc(F)cc1 [Compound 418] | 50 to 200 | 50 to 200
CNC(=O)Nc1cccc(-n2cc(-c3ccc(F)cc3)c(C)cc2=O)c1 [Compound 419] | 50 to 200 | 50 to 200
Cc1cc(=O)n(-c2ccc(OC(F)(F)F)cc2)cc1-c1ccc2c(c1)OCC(=O)N2 [Compound 424] | < 50 | 50 to 200
Cc1cc(=O)n(-c2ccc(OC(F)(F)F)cc2)cc1-c1ccc2c(c1)OCC(=O)N2C [Compound 425] | < 50 | < 50
CCn1c(=O)oc2cc(-c3cn(-c4ccc(OC(F)(F)F)cc4)c(=O)cc3C)ccc21 [Compound 430] | < 50 | < 50
Cc1cc(=O)n(-c2ccc(Cl)cc2)cc1-c1cn[nH]c1 [Compound 431] | 50 to 200 | > 200
Cc1cc(=O)n(-c2ccc(Cl)cc2)cc1-c1ccnnc1 [Compound 432] | 50 to 200 | > 200
Cn1cc(-c2cn(-c3ccc(OC(F)(F)F)cc3)c(=O)cc2NCc2cncnc2)cn1 [Compound 531] | < 50 | < 50
Cn1cc(C2=CN(c3ccc(OC(F)(F)F)cc3)CC=C2Oc2ccc(C(N)=O)cc2)cn1 [Compound 535] | < 50 | < 50
Cn1cc(-c2c[nH]c(=O)cc2NCc2ncccn2)cn1 [Compound 542] | < 50 | < 50
CCOc1ccc(-n2cc(-c3cnn(C)c3)c(NCc3ccccc3)cc2=O)c(C)c1 [Compound 543] | < 50 | < 50
Cn1cc(-c2c[nH]c(=O)cc2NCc2ccccn2)cn1 [Compound 544] | < 50 | 50 to 200
O=c1cc(NCc2ccccn2)ccn1-c1ccc(OC(F)(F)F)cc1 [Compound 547] | < 50 | < 50
CCOc1ccc(-n2cc(-c3cnn(C)c3)c(OCCOC)cc2=O)c(C)c1 [Compound 550] | < 50 | < 50
Cc1cc(=O)n(-c2ccc(OC(F)(F)F)cc2)cc1-c1ccc2oc(=O)[nH]c2c1 [Compound 553] | < 50 | < 50
Cc1cc(=O)n(-c2ccccc2NC(N)=O)cc1-c1ccc(F)cc1 [Compound 557] | < 50 | < 50
